The text below walks through data of ChEMBL document CHEMBL1125499, “Enantiomeric N-substituted N-normetazocines: a comparative study of affinities at sigma, PCP, and mu opioid receptors” (J Med Chem, 1992).

A short description of assay [1]: Binding affinity against PCP receptor using [3H]TCP as radioligand.
Assay [2] in a line: Ratio of binding affinities of pcp receptor(ki(nM)) to sigma opioid receptor(ki(nM)).
For assay [3], the target named is Mu-type opioid receptor (Rattus norvegicus, UniProt P33535). Kind of assay: Binding affinity against opioid receptor mu using [3H]-DAMGO as radioligand.
Assay [4] in a line: Binding affinity against sigma opioid receptor using [3H](+)-3-PPP as radioligand.
Assay [5] is described as follows: Binding affinity against sigma opioid receptor using [3H]pentazocine as radioligand.

SMILES strings stand for the structures.

In general, Ki refers to a measure of affinity in units of concentration, obtained from inhibition or displacement.

Chain of Mu-type opioid receptor (P33535 whole entry): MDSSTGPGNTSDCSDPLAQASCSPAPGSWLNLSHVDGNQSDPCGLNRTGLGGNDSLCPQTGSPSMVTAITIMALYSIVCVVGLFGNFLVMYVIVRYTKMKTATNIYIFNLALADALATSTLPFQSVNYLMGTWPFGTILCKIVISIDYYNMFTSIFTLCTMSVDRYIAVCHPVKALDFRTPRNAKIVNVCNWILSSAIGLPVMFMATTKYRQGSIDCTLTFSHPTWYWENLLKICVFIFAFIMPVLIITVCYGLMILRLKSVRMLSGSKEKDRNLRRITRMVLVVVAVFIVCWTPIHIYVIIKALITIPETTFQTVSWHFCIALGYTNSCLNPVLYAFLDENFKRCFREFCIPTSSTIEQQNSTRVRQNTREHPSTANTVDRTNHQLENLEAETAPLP

With `CC(C)=CCN1CC[C@@]2(C)c3cc(O)ccc3C[C@@H]1[C@@H]2C`, the Ki in assay [1] was 842 nM; in assay [3], 13 nM. The Ratio in assay [2] is 10.1.
As to `C=C[C@H](C)N1CC[C@@]2(C)c3cc(O)ccc3C[C@H]1[C@H]2C`, the Ki amounted to 90 nM in assay [1], 159 nM in assay [4] and 2270 nM in assay [3].
For the molecule `C=CCN1CC[C@@]2(C)c3cc(O)ccc3C[C@H]1[C@H]2C`, the Ki in assay [1] was 225 nM; in assay [3], over 10000 nM.
In the case of `C[C@H]1[C@H]2Cc3ccc(O)cc3[C@@]1(C)CCN2C/C=C/Cl`, the Ki worked out at 470 nM in assay [1], 403 nM in assay [5] and 1.5 nM in assay [3]. In addition, the Ratio in assay [2] turned out to be 1.2.
Taken in the same sequence, the figures for `C[C@H]1[C@H]2Cc3ccc(O)cc3[C@@]1(C)CCN2CCCc1ccccc1` were 3600 nM, 38.6 nM, 20 nM and 93.3.
Take `CC(C)=CCN1CC[C@]2(C)c3cc(O)ccc3C[C@H]1[C@H]2C` [(+)-PENTAZOCINE]: in assay [1], the Ki turned out to be 4040 nM. In addition, in assay [2], the Ratio was 1300.
Turning to `C=CCN1CC[C@]2(C)c3cc(O)ccc3C[C@@H]1[C@@H]2C`, the Ki is 504 nM in assay [1], over 3000 nM in assay [5] and 3.6 nM in assay [3].
As to `C[C@@H]1[C@@H]2Cc3ccc(O)cc3[C@@]1(C)CCN2CCc1ccccc1`, the Ki in assay [1] was over 10000 nM; in assay [5], 3.9 nM; in assay [3] it was 55 nM. Moreover, the Ratio in assay [2] is over 2560.
On to `CC#CCN1CC[C@@]2(C)c3cc(O)ccc3C[C@H]1[C@H]2C`, for which the Ki in assay [1] is 1230 nM; in assay [4] it was 93.7 nM; in assay [3], 1000 nM.
As to `C[C@H]1[C@H]2Cc3ccc(O)cc3[C@@]1(C)CCN2CCCCc1ccccc1`, the values for the Ki in assay [1], in assay [5] and in assay [3] were 5960 nM, 85.2 nM and 4 nM, respectively. Also, in assay [2], the Ratio stood at 70.
`C/C=C\CN1CC[C@@]2(C)c3cc(O)ccc3C[C@H]1[C@H]2C`: the Ki in assay [1] amounted to 381 nM; in assay [3], 1690 nM.
On to `C[C@H]1[C@H]2Cc3ccc(O)cc3[C@@]1(C)CCN2`, for which the Ki in assay [1] is 197 nM; in assay [5] it was 5580 nM; in assay [3], 23 nM.
For `C/C=C\CN1CC[C@]2(C)c3cc(O)ccc3C[C@@H]1[C@@H]2C`, the Ki turned out to be 1120 nM in assay [1], 460 nM in assay [4] and 11 nM in assay [3].
Regarding `C=C[C@H](C)N1CC[C@]2(C)c3cc(O)ccc3C[C@@H]1[C@@H]2C`, the Ki in assay [1] stood at 2200 nM; in assay [3] it was 3 nM.
Taken in the same sequence, the figures for `C=C[C@@H](C)N1CC[C@]2(C)c3cc(O)ccc3C[C@@H]1[C@@H]2C` were 1900 nM and 5.9 nM.
For the molecule `C[C@H]1[C@H]2Cc3ccc(O)cc3[C@@]1(C)CCN2C`, the inhibitory constant (Ki) in assay [1] was found to be 1190 nM; in assay [3], 11 nM.
For the molecule `C[C@@H]1[C@@H]2Cc3ccc(O)cc3[C@]1(C)CCN2`, the Ki is 30 nM in assay [1] and 470 nM in assay [3].
As to `C[C@@H]1[C@@H]2Cc3ccc(O)cc3[C@]1(C)CCN2CCCCCc1ccccc1`, the Ki in assay [1] is over 10000 nM; in assay [5] it was 2.64 nM; in assay [3], 260 nM. The Ratio in assay [2] is over 3790.
Regarding `C[C@H]1[C@H]2Cc3ccc(O)cc3[C@]1(C)CCN2CC1CC1` [CYCLAZOCINE], the inhibition constant Ki was 107 nM in assay [1] and 0.18 nM in assay [3].
As for `C/C=C/CN1CC[C@@]2(C)c3cc(O)ccc3C[C@H]1[C@H]2C`, the Ki came to 179 nM in assay [1], 52.5 nM in assay [4] and 5620 nM in assay [3].
As for `CC(C)CCN1CC[C@]2(C)c3cc(O)ccc3C[C@@H]1[C@@H]2C`, the Ki is 2740 nM in assay [1], 8.74 nM in assay [5] and 4.9 nM in assay [3]. The Ratio in assay [2] stood at 313.
As for `C[C@@H]1[C@@H]2Cc3ccc(O)cc3[C@]1(C)CCN2C`, the Ki turned out to be 41 nM in assay [1] and 4970 nM in assay [3].
In the case of `C[C@H]1[C@H]2Cc3ccc(O)cc3[C@]1(C)CCN2CCc1ccccc1`, the Ki came to 1880 nM in assay [1], 61.7 nM in assay [5] and 0.2 nM in assay [3]. Besides, the Ratio in assay [2] amounted to 30.5.
Take `C[C@@H]1[C@@H]2Cc3ccc(O)cc3[C@@]1(C)CN2CC1CC1`: the Ki in assay [1] stood at 153 nM; in assay [5], 17.2 nM; in assay [3] it was 1240 nM. The Ratio in assay [2] amounted to 8.9.
On the same counts, the results for `C[C@@H]1[C@@H]2Cc3ccc(O)cc3[C@]1(C)CCN2CCCc1ccccc1` are 9700 nM, 1.15 nM, 343 nM and 8440.
On the same counts, the results for `CC(C)CCN1CC[C@@]2(C)c3cc(O)ccc3C[C@H]1[C@H]2C` are over 10000 nM, 2.25 nM, 3500 nM and over 4440.
With `CC#CCN1CC[C@]2(C)c3cc(O)ccc3C[C@@H]1[C@@H]2C`, the figures for the Ki in assay [1] and in assay [3] were 360 nM and 5.1 nM, respectively.
As for `C[C@H]1[C@H]2Cc3ccc(O)cc3[C@@]1(C)CCN2Cc1ccccc1`, the Ki was 6500 nM in assay [1], 36.5 nM in assay [5] and 97 nM in assay [3].
For `C/C=C/CN1CC[C@]2(C)c3cc(O)ccc3C[C@@H]1[C@@H]2C`, the Ki in assay [1] came to 347 nM; in assay [3], 9 nM.
For `C[C@@H]1[C@@H]2Cc3ccc(O)cc3[C@]1(C)CCN2C/C=C/Cl`, the Ki stood at 250 nM in assay [1], 10.5 nM in assay [5] and 1980 nM in assay [3]. Besides, the Ratio in assay [2] stood at 24.
On the same counts, the results for `C[C@@H]1[C@@H]2Cc3ccc(O)cc3[C@]1(C)CCN2CCCCc1ccccc1` are over 10000 nM, 3.23 nM, 270 nM and 3100.
As to `C=C[C@@H](C)N1CC[C@@]2(C)c3cc(O)ccc3C[C@H]1[C@H]2C`, the figures for the Ki in assay [1] and in assay [3] were 200 nM and 690 nM, respectively.
On to `C[C@@H]1[C@@H]2Cc3ccc(O)cc3[C@]1(C)CCN2Cc1ccccc1`, for which the Ki was over 10000 nM in assay [1], 0.67 nM in assay [5] and 1610 nM in assay [3].
For `C[C@H]1[C@H]2Cc3ccc(O)cc3[C@@]1(C)CCN2CCCCCc1ccccc1`, the values for the Ki in assay [1], in assay [5] and in assay [3] were over 10000 nM, 38.5 nM and 68 nM, respectively. Besides, the Ratio in assay [2] stood at 260.
